# In patent publication US20040009181A1, “Treatment of ophthalmic conditions” (priority 2002, published 2004):
# Ends that are not written are not given here.
# Columns and labels:
# [1] = centrally administered; Peptides 9, 1285-8 (1989); cited from earlier work
# [2] = tested on: Herpes zoster virus (HZV); conditions: Eye 8: 70-74 (1994); cited from earlier work
# [3] = tested on: corneal epithelial cells; conditions: Lens Eye Toxic. Res. 6: 59-85 (1989); cited from earlier work
# [4] = tested on: C. albicans (clinical isolate); assay: C. albicans viability, colony forming units (incl. comparison with fluconazole and ACTH); format: cell-based, Candida albicans; design: potency in reducing C. albicans viability / inhibition of C. albicans CFU: dose or concentration left out as unconfirmed; conditions: for potency in reducing C. albicans viability: comparison among peptides, fluconazole and ACTH; for effect on C. albicans colony forming units: 10^−15 to 10^−4M, 2 hours at 37° C., FIG. 7
# Procedure: C. albicans (clinical isolate) were obtained from the collection of the Department of Microbiology, Ospedale Maggiore di Milano. C. albicans were maintained on Sabouraud'[…] periodically transferred to Sabouraud's agar plates and incubated for 48 hours at 28° C. To prepare stationary growth phase yeast, a colony was taken from the agar plate and transferred into 30 ml Sabouraud-dextrose broth and incubated for 72 hours at 32° C. Cells were centrifuged at 100×g for 10 minutes and the pellet was washed twice with distilled water. Cells were counted and suspended in Hank's balanced salt solution (“HBSS”) to the desired concentration. Viability, determined by the exclusion of 0.01% methylene blue, remained >98%. […] ID NO. […] Cells were then washed in cold distilled water and diluted with HBSS to a concentration of 100 organisms/ml. One ml aliquots were dispensed on blood agar plates and incubated for 48 hours at 37° C. Organism viability was estimated from the number of colonies formed. […] (SEQ. […] Fluconazole is a well established antifungal agent. The potency of the peptides in reducing C. albicans viability is studied in comparison with fluconazole and ACTH using similar procedures as in Example VII. […] There were at least six replicates for each concentration of peptide. […] Their inhibitory activity was similar to that of fluconazole. The “core” α-MSH sequence, α-MSH [4-10] (SEQ. […] (SEQ. ID NO. 3) and α-MSH [11-13] […] (SEQ. ID NO. 4) (p<0.05).
# [5] = tested on: infectious keratitis of bacterial etiology; assay: Treatment of bacterial ophthalmic infection, bacterial keratitis, patient; format: in vivo; conditions: ophthalmic aqueous solution 10^−5 M, 3-5 drops four times daily for 7 days
# Source text: A patient presents complaining of eye pain when blinking and blurred vision. Upon examination the cornea appears subtly less transparent than normal cornea and may have ulcers on its surface. The diagnosis is infectious keratitis of bacterial etiology, which is confirmed by laboratory findings.
# [6] = tested on: HIV-1 infected promonocytic U1 cell line; assay: HIV-p24 release by TNF-α stimulated U1 cells (ELISA); format: cell-based; conditions: 10^−13 to 10^−4 M, FIG. 2
# Source text: Before use, cells were washed three times with HBSS (Gibco) to remove extracellular virus.
# [7] = tested on: Keratomycosis; assay: Treatment of fungal ophthalmic infection, Keratomycosis, patient; format: in vivo; conditions: ophthalmic aqueous solution 10^−5 M, 3-5 drops four times daily for 7 days
# Source text: Upon examination, a patient is diagnosed as having Keratomycosis.
# [8] = tested on: Staphylococcus aureus (ATCC29213); assay: S. aureus viability, colony forming units; format: cell-based; design: dose or concentration left out as unconfirmed; conditions: 2 hours at 37° C.; FIG. 5
# Procedure: Staphylococcus aureus (ATCC29213) was obtained from the collection of the Department of Microbiology, Ospedale Maggiore di Milano. […] (SEQ. ID NO 4), α-MSH [11-13] […] S. aureus were then washed in cold distilled water and diluted with HBSS to a concentration of 100 organisms/ml. One ml aliquots were dispensed on blood agar plates and incubated for 24 hours at 37° C. Organism viability was estimated from the number of colony forming units. (SEQ. ID NO. 4) and α-MSH [11-13]
# [9] = tested on: HIV-1 RNA in PMA-stimulated U1 cells; assay: HIV transcription, Northern blot analysis of HIV-RNA in PMA-stimulated U1 cells; format: cell-based; conditions: 10^−5M; PMA (1 ng/mL) stimulated U1 cells, 24 h; FIG. 4
# Source text: Total RNA was extracted by the guanidine thiocyanate phenol method using an RNA isolation kit (Tripure, Boehringer Mannheim, Indianapolis, Ind.), following the manufacturer's instructions. Ten μg of total RNA were separated by 0.8% agarose/formaldehyde gel electrophoresis and transferred onto nylon membrane. The filters were baked and hybridized for 18 hr with α^32 P-labeled HIV-full length probe (kind gift of L. Turchetto and E. Vicenzi, S. Raffaele Hospital, Milan, Italy). The radiolabeling reaction was performed using a DNA labeling kit (Ready-to-go, Pharmacia Biotech, San Francisco, Calif.). Filters were washed and exposed to X-ray film for 5 days. The labeled probe was removed by washing at 80° C. in 0.1×SSC containing 0.1% sodium dodecyl sulphate and then rehybridized with α^32 P-labeled glyceraldehyde-3-phosphate dehydrogenase (GAPDH) cDNA probe. Densitometric analysis was performed using ImageMaster™ VDS 3.0 software (Pharmacia Biotech) and results were expressed as density units.
# [10] = tested on: HIV-1 infected promonocytic U1 cells; assay: HIV-p24 and reverse transcriptase release by U1 cells stimulated by IL-6, IL-10, PMA or crowding; format: cell-based; conditions: 10^−5 M; U1 cells induced by IL-6, IL-10, PMA, and in crowding conditions; FIG. 3
# Procedure: In all experiments, each condition was tested in triplicate.
# [11] = tested on: S. aureus with recombinant human urokinase; assay: Urokinase-induced growth-enhancement of S. aureus, colony counts; format: cell-based, Staphylococcus aureus; conditions: 10^−6 M; urokinase 500 U, four hours at 37° C.; FIG. 6; listed as α-MSH [11-13]
# Procedure: In this experiment, the influence of α-MSH on urokinase-induced growth-enhancement is determined. Hart, D. A.; Loule, T.; Krulikl, W.; Reno, C., Staphylococcus Aureus Strains Differ in Their in Vitro Responsiveness to Human Urokinase: Evidence that Methicillin-Resistant Strains are Predominantly Nonresponsive to the Growth-Enhancing Effects of Urokinase, Can. J. Microbiol. 42, 1024-31 […]. […] (SEQ. ID NO. 4) or α-MSH [11-13] (SEQ. ID NO. […]) at 10^−6 M. Appropriate dilutions of S. aureus were dispensed on agar plates and colonies counted after 24 hours incubation at 37° C.
# [12] = tested on: Herpes simplex virus blepharitis; assay: Treatment of viral ophthalmic infection, HSV blepharitis, patient; format: in vivo; conditions: ophthalmic aqueous solution 10^−5 M, 3-5 drops four times daily for 7 days
# Procedure: A patient is diagnosed as having Herpes simplex virus blepharitis. […] The patient is treated with 3-5 drops of the ophthalmic aqueous solution onto the surface of eyes four times daily for 7 days.
# [13] = Peptides 12, 767-71 (1991); cited from earlier work
# [14] = Peptides 6, 273-5 (1985); cited from earlier work
molecule,measurement,setting,value
"8-13 sequence: α-MSH 8-13 sequence (RWGKPV; ends and bridges not checked; UniProt P01189 145-150, looked up, fragment)",antipyretic potency relative to α-MSH (11-13) sequence,[1],greater than that of the 11-13 sequence
"9-13 sequence: α-MSH 9-13 sequence (WGKPV; ends and bridges not checked; UniProt P01189 146-150, looked up, fragment)",antipyretic potency relative to α-MSH (11-13) sequence,[1],almost devoid of activity
"10-13 sequence: α-MSH (11-13) with glycine added to form the 10-13 sequence (GKPV; ends and bridges not checked; UniProt P01189 147-150, looked up, fragment)",antipyretic potency relative to α-MSH (11-13) sequence,[1],slightly decreased potency
Nc1nc2c(ncn2COCCO)c(=O)[nH]1 [Acyclovir],preventative effect on ocular complications of HZV,[2],little or no preventative effect
O=c1[nH]c(=O)n([C@H]2C[C@H](O)[C@@H](CO)O2)cc1I [Idoxurine],toxicity to corneal epithelial cells,[3],toxic to corneal epithelial cells
"ACTH (1-39): Adrenocorticotropic Hormone (1-39) (SYSMEHFRWGKPVGKKRRPVKVYPNGAEDESAEAFPLEF; Corticotropin; UniProt P01189 138-176, looked up) [reference compound]",potency in reducing C. albicans viability,[4]; FIG. 8,did not reduce
"ACTH (18-39): ACTH fragment (18-39), also called CLIP [reference compound]",potency in reducing C. albicans viability,[4]; FIG. 8,did not reduce
"HFRWGKPV (Ac-HFRWGKPV-NH2) [α-MSH [6-13], α-MSH from residue 6 through residue 13]",potency in reducing C. albicans viability,[4]; FIG. 8,most effective
KPV,outcome of bacterial keratitis after treatment,[5],either shows marked improvement or fully recovers
same,effect on p24 release,[6],significantly inhibited
same,outcome of Keratomycosis after treatment,[7],either shows marked improvement or fully recovers
same,effect on S. aureus colony formation (CFU),[8],inhibited
same,reduction of spliced HIV-1 RNA,[9],approximately 50%
same,reduction of unspliced HIV-1 RNA,[9],approximately 50%
same,effect on RT (reverse transcriptase) release,[10],significantly inhibited
same,effect on p24 release,[10],significantly inhibited
same,effect on urokinase-enhanced S. aureus colony formation,[11],significantly inhibited the enhancing effect of urokinase
same,effect on C. albicans colony forming units,[4],greatly reduced
same,potency in reducing C. albicans viability,[4]; FIG. 8,most effective
same,HSV blepharitis symptom after treatment,[12],substantially reduced
MEHFRWG (Ac-MEHFRWG-NH2) [α-MSH [4-10]],inhibition of C. albicans CFU,[4]; FIG. 8,approximately 50%
Val-Pro-Lys-AcCys-s-s-CysAc-Lys-Pro-Val [KPV dimer],effect on S. aureus colony formation (CFU),[8],inhibited
same,effect on C. albicans colony forming units,[4],inhibited
[D-K^11] α-MSH 11-13,anti-inflammatory activity relative to L-form tripeptide α-MSH 11-13,[13],same general potency as the L-form
[Nle^4 DPhe^7]-α-MSH,potency in reducing fever relative to parent peptide α-MSH,[14],approximately ten times more potent than the parent peptide
